Measured values as given in publication PMC7870626, “Neurotoxicity and underlying cellular changes of 21 mitochondrial respiratory chain inhibitors” (Archives of Toxicology, 2021).
“Also recorded” adds a separate entry of the source. Where two headings read alike, the source gives them in different places.

Experiments:
[1] = test system: LUHMES cells; assay type: cell-based, human
Procedure: Cells were cultured and treated as described above for the NeuriTox assay. On d3, after 24 h treatment, culture medium was replaced by 33 µl/well 1 × Biospyder lysis buffer. After 15 min at room temperature, plates were sealed and frozen at -80 °C to complete lysis. Samples were analyzed at Bioclavis (Glasgow) using the TempO-Seq technique and the EU-ToxRisk v2.0 gene probe panel covering ca. 3000 genes (Yeakley et al. [2017]). All genes are listed in the supplementary excel file (containing also all gene regulations). Briefly, a 50 bp fragment of the target gene was amplified. The amplification step also introduced sample-specific barcodes. This allowed pooling of all samples and standard next-generation sequencing of the ensemble. Afterward, adapters were used to allocate the sequenced fragments to the correct samples. Finally, the alignment of all sequenced fragments (FASTQ files) for each sample to the collection of reference 50 bp oligonucleotides was performed for the quantification of reads per gene, also known as the read count values. In a pre-filtering step, samples with a total count < 0.2 million and genes with an average count < 1.5 were removed.
To correct for both read depth and RNA composition, the DESeq2′s median of ratios normalization was applied. The analysis of differentially expressed genes (DEG) of each treatment against the control group was done by the Wald test implemented in DESeq2/R (Love et al. [2014]), including an FDR correction for p-adjusted ≤ 0.05. […] A curve was fit through these concentration–response data to obtain EC10DEG. For comparability, all DEG data were normalized to a positive control. […] The EC10DEG was calculated using an established online open access BMC calculator (BMCeasy) (Krebs et al. [2020]).

[2] = test system: LUHMES cells; experiment: Mitochondrial respiration of intact LUHMES cells (Seahorse OCR); assay type: cell-based, human; conditions: d3 LUHMES, acute treatment, highest non-cytotoxic concentration (cII inhibitors 100 µM)
Procedure: Respiration of intact LUHMES cells was performed as described earlier (Delp et al. [2018a], [2019]). Briefly, 48 h differentiated cells were re-seeded into Agilent Seahorse XFe24-well plates in DM without cAMP and GDNF at a density of 100,000 cells/cm^2 and cultured for 24 h before the assay was initiated. Inhibition of respiration was calculated as the difference between baseline measurements (i.e., after equilibration, last measurement before treatment) and the first measurement after treatment with the test compound.

[3] = test system: SH-SY5Y cells; assay type: cell-based, human; conditions: up to 10 µM; for Neurite degeneration: 24 h exposure, without affecting viability; for Neurite degeneration (in words) / Reduction in viability: 120 h exposure
Procedure: The cells are able to form neurites and display several dopaminergic characteristics. […] Differentiation was initiated 24 h later (on day 0, d0) by exchange to 100 µl/well differentiation medium (DMEM:F12, supplemented with 1 µM all-trans retinoic acid (RA), 1 × N2 supplement, 2 mM L-glutamine, 100 µg/ml streptomycin, and 100 U/ml penicillin). All media and supplements were obtained from Gibco (ThermoFisher) except from RA (Sigma).
On d3, 100 µl of fresh differentiation medium were added to the wells. For the 120 h exposure, this medium contained twice the final treatment concentration. On d6, 100 µl from each well were removed, and the procedure was repeated and the cells were analyzed on d8. For the 24 h exposure, cells received an addition of 100 µl pure differentiation medium on d3 and were treated with compounds as described above on d6 for 24 h before analysis. […] The cells were incubated with the stain mixture for 20 min at 37 °C, 5% CO2. After incubation, 130 µL of differentiation medium were added to all the wells to stop further staining of the cells. Images were obtained using ImageXpress® Micro (Molecular Devices). […] The mean neurite length was calculated using the Neurite Outgrowth plug-in in the MetaXpress® Software. Outgrowths were defined as cytoplasmic prolongations with a maximum width of 2 µm (3 pixels). The minimum outgrowth size needed to be logged as significant was defined as 15 µm (23 pixels).

[4] = test system: LUHMES cells; experiment: LUHMES 120 h exposure scenario, neurite effects; assay type: cell-based, human
Procedure: The NeuriTox test was performed as previously described (Delp et al. [2018b]; Krug et al. [2013a]; Stiegler et al. [2011]). Briefly, cells differentiated for 48 h were re-seeded into 96-well plates at a density of 100,000 cells/cm^2 in DM without cAMP and GDNF, and treated 1 h after seeding for 24 h. Subsequently, multiple endpoints were determined, e.g., neurite outgrowth (i.e., NeuriTox test), resazurin reduction, intracellular ATP content, gene expression levels from TempO-Seq analysis, and proteasomal activity. For the 120 h exposure scenario, LUHMES cells were differentiated for another 3 days after reseeding before they were treated on day 5 (d5) and d7 by a half medium exchange. Endpoints were determined on d10 of differentiation.
Image acquisition and analysis was performed as described previously (Krug et al. [2013a]; Schildknecht et al. [2013]; Stiegler et al. [2011]). In brief, cells were live-stained with 1 µg/ml Hoechst H-33342 and 1 µM calcein-AM and image acquisition was done by an automated high content imager (Cellomics, Waltham, MA, USA). Cell viability was determined as ratio of live cells (cell bodies being Calcein- and Hoechst-positive) relative to the total amount of cells (Hoechst-positive cell bodies). Neurite area was calculated by subtracting the somatic area (Hoechst-positive area plus surrounding) from the calcein-positive area.

[5] = target: T1, cI (Homo sapiens, UniProt O75251+O75306+P03886); assay type: cell-based; conditions: permeabilized LUHMES; capsaicin 50 µM, mepronil 100 µM
T1 construct: endogenous in cells; host or cells: LUHMES cells, digitonin-permeabilized
Procedure: (§1) To investigate individual respiratory chain complexes, a method developed earlier and described extensively was used (Delp et al. [2019]). In brief, LUHMES cells were seeded at a density of 205,000 cells/cm^2 in PM into Agilent Seahorse XFe24-well plates. […] To reduce data variability, internal normalization of the OCR of each well was done relative to its value after equilibration.

[6] = target: T2, cII (Homo sapiens, UniProt O14521+P21912+Q99643); experiment: Respiratory chain complex activity in permeabilized LUHMES cells: cII; assay type: cell-based; conditions: mepronil at 100 µM
T2 construct: endogenous in cells; host or cells: LUHMES cells, digitonin-permeabilized
Procedure: as §1

[7] = gene AARS, 0.08 µM, 24 h, vs 0.1% DMSO
[8] = gene AASDHPPT, 0.08 µM, 24 h, vs 0.1% DMSO
[9] = gene AATF, 0.08 µM, 24 h, vs 0.1% DMSO
[10] = gene ABCA1, 0.08 µM, 24 h, vs 0.1% DMSO
[11] = gene ABCA6, 0.08 µM, 24 h, vs 0.1% DMSO

T2 sequence (P21912 29-280): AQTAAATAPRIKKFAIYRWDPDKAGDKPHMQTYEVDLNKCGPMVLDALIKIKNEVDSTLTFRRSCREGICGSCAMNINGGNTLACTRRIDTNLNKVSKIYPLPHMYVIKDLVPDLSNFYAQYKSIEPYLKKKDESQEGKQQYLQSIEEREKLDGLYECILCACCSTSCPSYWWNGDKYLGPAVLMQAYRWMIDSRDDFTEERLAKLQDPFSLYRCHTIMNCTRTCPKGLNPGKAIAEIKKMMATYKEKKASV
T2 sequence (Q99643 30-169): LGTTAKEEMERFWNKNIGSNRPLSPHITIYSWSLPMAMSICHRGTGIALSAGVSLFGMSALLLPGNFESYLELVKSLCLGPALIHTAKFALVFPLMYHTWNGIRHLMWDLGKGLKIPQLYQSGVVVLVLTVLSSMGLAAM
T2 sequence (O14521 57-159): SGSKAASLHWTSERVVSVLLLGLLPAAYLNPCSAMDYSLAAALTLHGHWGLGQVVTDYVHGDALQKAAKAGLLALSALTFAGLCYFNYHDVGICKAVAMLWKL
T2 sequence (P31040 43-664 partner): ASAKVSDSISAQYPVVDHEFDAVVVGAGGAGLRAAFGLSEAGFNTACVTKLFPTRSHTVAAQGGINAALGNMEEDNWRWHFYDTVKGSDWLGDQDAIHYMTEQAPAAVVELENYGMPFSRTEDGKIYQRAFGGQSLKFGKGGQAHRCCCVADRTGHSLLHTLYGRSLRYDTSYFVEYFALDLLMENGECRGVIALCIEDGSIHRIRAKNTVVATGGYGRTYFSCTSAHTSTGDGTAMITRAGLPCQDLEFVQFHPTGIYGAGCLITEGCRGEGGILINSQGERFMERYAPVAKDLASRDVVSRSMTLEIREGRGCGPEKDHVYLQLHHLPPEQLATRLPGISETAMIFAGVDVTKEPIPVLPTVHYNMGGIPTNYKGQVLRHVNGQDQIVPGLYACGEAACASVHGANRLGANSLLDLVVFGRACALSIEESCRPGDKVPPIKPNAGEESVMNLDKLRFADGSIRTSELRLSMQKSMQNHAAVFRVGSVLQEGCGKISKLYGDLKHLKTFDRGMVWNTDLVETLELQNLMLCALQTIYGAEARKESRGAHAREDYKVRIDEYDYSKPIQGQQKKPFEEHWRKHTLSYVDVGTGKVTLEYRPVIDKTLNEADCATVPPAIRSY
T1 sequence (O75306 34-463): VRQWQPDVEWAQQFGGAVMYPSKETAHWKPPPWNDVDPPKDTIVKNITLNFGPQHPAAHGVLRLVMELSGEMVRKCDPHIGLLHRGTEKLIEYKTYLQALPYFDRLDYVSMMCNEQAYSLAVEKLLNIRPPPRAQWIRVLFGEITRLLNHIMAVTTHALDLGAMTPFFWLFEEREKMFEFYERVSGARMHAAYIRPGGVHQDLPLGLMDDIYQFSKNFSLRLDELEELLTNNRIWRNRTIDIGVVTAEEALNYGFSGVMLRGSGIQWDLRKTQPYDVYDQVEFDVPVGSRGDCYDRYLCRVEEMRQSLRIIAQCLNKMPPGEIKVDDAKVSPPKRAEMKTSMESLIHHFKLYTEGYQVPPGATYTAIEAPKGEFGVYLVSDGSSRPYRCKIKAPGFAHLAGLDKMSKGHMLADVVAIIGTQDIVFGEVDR
T1 sequence (P03886 whole entry): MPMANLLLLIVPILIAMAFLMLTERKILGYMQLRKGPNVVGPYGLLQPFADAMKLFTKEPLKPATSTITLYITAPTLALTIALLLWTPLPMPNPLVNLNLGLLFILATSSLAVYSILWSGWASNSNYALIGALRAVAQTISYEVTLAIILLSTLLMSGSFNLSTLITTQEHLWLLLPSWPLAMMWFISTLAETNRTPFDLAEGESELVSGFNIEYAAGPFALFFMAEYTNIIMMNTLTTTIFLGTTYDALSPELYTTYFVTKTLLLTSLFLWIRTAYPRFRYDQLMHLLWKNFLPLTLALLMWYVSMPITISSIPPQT
T1 sequence (O75251 39-213): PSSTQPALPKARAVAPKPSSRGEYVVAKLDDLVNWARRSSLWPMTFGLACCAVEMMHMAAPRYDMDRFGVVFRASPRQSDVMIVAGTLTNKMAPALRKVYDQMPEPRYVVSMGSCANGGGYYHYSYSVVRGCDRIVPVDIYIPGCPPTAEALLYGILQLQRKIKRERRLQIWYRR

CCCCCC[C@H]1C(=O)O[C@H](C)[C@H](NC(=O)c2cccc(NC=O)c2O)C(=O)O[C@@H](C)[C@@H]1OC(=O)CC(C)C [Antimycin A]
log2FoldChange AARS [1, 7]: -0.20 log2 | log2FoldChange AASDHPPT [1, 8]: -0.32 log2 | log2FoldChange AATF [1, 9]: 0.18 log2 | log2FoldChange ABCA1 [1, 10]: -0.64 log2 | log2FoldChange ABCA6 [1, 11]: 1.98 log2 | Inhibition of total mitochondrial respiration of intact cells [2]: strong inhibitory effects | Neurite degeneration [3]: > 25% | Neurite degeneration (in words) [3]: degeneration of neurites | Reduction in viability [3]: > 25%

Cc1ccc(-c2c(Cl)nc(C#N)n2S(=O)(=O)N(C)C)cc1 [Cyazofamid]
log2FoldChange AARS ([1]; gene AARS, 0.00781 µM, 24 h, vs 0.1% DMSO): -1.30 log2 | log2FoldChange AASDHPPT ([1]; gene AASDHPPT, 0.00781 µM, 24 h, vs 0.1% DMSO): 1.09 log2 | log2FoldChange AATF ([1]; gene AATF, 0.00781 µM, 24 h, vs 0.1% DMSO): -0.24 log2 | log2FoldChange ABCA1 ([1]; gene ABCA1, 0.00781 µM, 24 h, vs 0.1% DMSO): -1.98 log2 | log2FoldChange ABCA6 ([1]; gene ABCA6, 0.00781 µM, 24 h, vs 0.1% DMSO): 0.44 log2 | Inhibition of total mitochondrial respiration of intact cells [2]: inactive | Increase in sensitivity of neurite EC25, 120 h versus 24 h exposure [4]: five-to-eightfold | Neurite degeneration [3]: > 25% | Neurite degeneration (in words) [3]: degeneration of neurites; also recorded: increased neurite degeneration | Reduction in viability [3]: > 25%

COc1cc2c(cc1OC)[C@@H]1C(=O)c3ccc4c(c3O[C@@H]1CO2)C=CC(C)(C)O4 [Deguelin]
Number of DEGs triggered ([1]; 13 µM, 24 h, LUHMES): 325 | Regulation of the 13 deguelin-sensitive genes (in words) ([1]; LUHMES 24 h): 11 out of 13 of these genes were not significantly regulated up to 0.8 µM deguelin, but clearly upregulated at 3.25 µM | log2FoldChange AARS ([1]; gene AARS, 0.05 µM, 24 h, vs 0.1% DMSO): -0.69 log2 | log2FoldChange AASDHPPT ([1]; gene AASDHPPT, 0.05 µM, 24 h, vs 0.1% DMSO): 0.63 log2 | log2FoldChange AATF ([1]; gene AATF, 0.05 µM, 24 h, vs 0.1% DMSO): -0.08 log2 | log2FoldChange ABCA1 ([1]; gene ABCA1, 0.05 µM, 24 h, vs 0.1% DMSO): -2.12 log2 | log2FoldChange ABCA6 ([1]; gene ABCA6, 0.05 µM, 24 h, vs 0.1% DMSO): 0.47 log2 | Increase in sensitivity of neurite EC25, 120 h versus 24 h exposure [4]: five-to-eightfold | Neurite degeneration [3]: no effects | Neurite degeneration (in words) [3]: degeneration of neurites; also recorded: increased neurite degeneration | Reduction in viability [3]: > 25%

COc1cc(CNC(=O)CCCC/C=C/C(C)C)ccc1O [Capsaicin]
log2FoldChange AARS ([1]; gene AARS, 0.10 µM, 24 h, vs 0.1% DMSO): -0.12 log2 | log2FoldChange AASDHPPT ([1]; gene AASDHPPT, 0.10 µM, 24 h, vs 0.1% DMSO): 0.45 log2 | log2FoldChange AATF ([1]; gene AATF, 0.10 µM, 24 h, vs 0.1% DMSO): -0.07 log2 | log2FoldChange ABCA1 ([1]; gene ABCA1, 0.10 µM, 24 h, vs 0.1% DMSO): -0.65 log2 | log2FoldChange ABCA6 ([1]; gene ABCA6, 0.10 µM, 24 h, vs 0.1% DMSO): -2.67 log2 | Inhibition of cI activity (in words) [5]: no significant response | Inhibition of total mitochondrial respiration of intact cells [2]: weak response

CCOCCc1ccc(OCCN=c2[nH]cnc(CC)c2Cl)c(C)c1C [Pyrimidifen]
log2FoldChange AARS [1, 7]: -0.45 log2 | log2FoldChange AASDHPPT [1, 8]: 0.72 log2 | log2FoldChange AATF [1, 9]: -0.0132 log2 | log2FoldChange ABCA1 [1, 10]: -1.62 log2 | log2FoldChange ABCA6 [1, 11]: 0.65 log2 | Increase in sensitivity of neurite EC25, 120 h versus 24 h exposure [4]: 9.8 fold

COC(=O)N(OC)c1ccccc1COc1ccn(-c2ccc(Cl)cc2)n1 [Pyraclostrobin]
log2FoldChange AARS ([1]; gene AARS, 0.0856 µM, 24 h, vs 0.1% DMSO): -0.28 log2 | log2FoldChange AASDHPPT ([1]; gene AASDHPPT, 0.0856 µM, 24 h, vs 0.1% DMSO): 0.80 log2 | log2FoldChange AATF ([1]; gene AATF, 0.0856 µM, 24 h, vs 0.1% DMSO): -0.24 log2 | log2FoldChange ABCA1 ([1]; gene ABCA1, 0.0856 µM, 24 h, vs 0.1% DMSO): -1.33 log2 | log2FoldChange ABCA6 ([1]; gene ABCA6, 0.0856 µM, 24 h, vs 0.1% DMSO): 0.89 log2 | Increase in sensitivity of neurite EC25, 120 h versus 24 h exposure [4]: five-to-eightfold

CC1=C(C(=O)Nc2ccccc2)SCCO1 [Carboxin]
log2FoldChange AARS ([1]; gene AARS, 0.20 µM, 24 h, vs 0.1% DMSO): -0.12 log2 | log2FoldChange AASDHPPT ([1]; gene AASDHPPT, 0.20 µM, 24 h, vs 0.1% DMSO): 0.26 log2 | log2FoldChange AATF ([1]; gene AATF, 0.20 µM, 24 h, vs 0.1% DMSO): 0.0462 log2 | log2FoldChange ABCA1 ([1]; gene ABCA1, 0.20 µM, 24 h, vs 0.1% DMSO): -0.37 log2 | log2FoldChange ABCA6 ([1]; gene ABCA6, 0.20 µM, 24 h, vs 0.1% DMSO): 0.78 log2 | Inhibition of cII activity (in words) [6]: strong inhibition of cII

Cc1nc(C(F)(F)F)c(C(=O)Nc2c(Br)cc(OC(F)(F)F)cc2Br)s1 [Thifluzamide]
log2FoldChange AARS ([1]; gene AARS, 0.15 µM, 24 h, vs 0.1% DMSO): -0.98 log2 | log2FoldChange AASDHPPT ([1]; gene AASDHPPT, 0.15 µM, 24 h, vs 0.1% DMSO): 0.89 log2 | log2FoldChange AATF ([1]; gene AATF, 0.15 µM, 24 h, vs 0.1% DMSO): -0.41 log2 | log2FoldChange ABCA1 ([1]; gene ABCA1, 0.15 µM, 24 h, vs 0.1% DMSO): -0.76 log2 | log2FoldChange ABCA6 ([1]; gene ABCA6, 0.15 µM, 24 h, vs 0.1% DMSO): 1.03 log2 | Inhibition of cII activity (in words) [6]: strong inhibition of cII | Increase in sensitivity of neurite EC25, 120 h versus 24 h exposure [4]: five-to-eightfold

C=C(C)[C@H]1Cc2c(ccc3c2O[C@@H]2COc4cc(OC)c(OC)cc4[C@@H]2C3=O)O1 [Rotenone]
log2FoldChange AARS [1]: -0.41 log2 | log2FoldChange AASDHPPT [1]: 0.79 log2 | log2FoldChange AATF [1]: -0.42 log2 | log2FoldChange ABCA1 [1]: -0.98 log2 | log2FoldChange ABCA6 [1]: -0.24 log2 | Neurite degeneration [3]: > 25% | Neurite degeneration (in words) [3]: degeneration of neurites | Reduction in viability [3]: > 25%
